Experimental data: patent publication US11098063B2, “Diazabicyclic substituted imidazopyrimidines and their use for the treatment of breathing disorders” (Bayer Aktiengesellschaft, priority 2017, dated 2021)

Columns and labels:
human TASK-1 = human TASK-1 (Homo sapiens (Human), UniProt O14649); assay: Inhibition of recombinant TASK-1 in stably transfected CHO cells (voltage-sensitive dye, KCl depolarization); assay type: cell-based; conditions: depolarization by 40 mM potassium chloride
Description: (§1) B-2. Inhibition of Recombinant TASK-1 and TASK-3 In Vitro
(§2) The investigations on the inhibition of the recombinant TASK-1 and TASK-3 channels were conducted using stably transfected CHO cells. The compounds according to the invention were tested in this case by application of 40 mM potassium chloride in the presence of a voltage-sensitive dye according to the method described in detail in the following references [Whiteaker et al., Validation of FLIPR membrane potential dye for high-throughput screening of potassium channel modulators, J. Biomol. Screen. 6 (5), 305-312 (2001); Molecular Devices FLIPR Application Note: Measuring membrane potential using the FLIPR® membrane potential assay kit on Fluorometric Imaging Plate Reader (FLIPR®) systems, http://www.moleculardevices.com/reagents-supplies/assay-kits/ion-channels/flipr-membrane-potential-assay-kits]. The activity of the test substances was determined as their ability to inhibit a depolarization induced in the recombinant cells by 40 mM potassium chloride. The concentration which can block half of this depolarization is referred to as IC50.

human TASK-3 = human TASK-3 (Homo sapiens (Human), UniProt Q9NPC2); assay: Inhibition of recombinant TASK-3 in stably transfected CHO cells (voltage-sensitive dye, KCl depolarization); assay type: cell-based; conditions: depolarization by 40 mM potassium chloride
human TASK-3, sequence (Q9NPC2 whole entry): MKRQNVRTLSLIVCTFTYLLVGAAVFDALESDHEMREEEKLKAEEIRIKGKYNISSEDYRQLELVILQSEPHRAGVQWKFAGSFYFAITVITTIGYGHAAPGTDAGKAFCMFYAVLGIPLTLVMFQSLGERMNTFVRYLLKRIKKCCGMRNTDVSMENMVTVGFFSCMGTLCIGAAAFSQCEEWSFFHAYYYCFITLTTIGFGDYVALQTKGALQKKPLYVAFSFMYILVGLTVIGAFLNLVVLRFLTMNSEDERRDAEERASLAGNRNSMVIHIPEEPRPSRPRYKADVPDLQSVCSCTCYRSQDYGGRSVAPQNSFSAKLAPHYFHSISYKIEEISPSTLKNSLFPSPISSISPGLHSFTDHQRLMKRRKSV
Description: as §1, §2

human TASK-1, sequence (O14649 whole entry): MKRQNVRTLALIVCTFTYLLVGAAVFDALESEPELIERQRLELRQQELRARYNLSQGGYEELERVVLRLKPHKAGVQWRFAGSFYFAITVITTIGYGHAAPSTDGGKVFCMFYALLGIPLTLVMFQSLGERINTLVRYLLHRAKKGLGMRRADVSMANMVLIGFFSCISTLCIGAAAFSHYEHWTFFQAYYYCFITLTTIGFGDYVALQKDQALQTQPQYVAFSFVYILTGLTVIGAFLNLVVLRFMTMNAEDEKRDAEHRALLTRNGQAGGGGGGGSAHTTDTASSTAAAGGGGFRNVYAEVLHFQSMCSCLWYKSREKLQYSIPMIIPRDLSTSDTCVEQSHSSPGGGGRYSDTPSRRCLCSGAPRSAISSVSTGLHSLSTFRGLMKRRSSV

SMILES	IC50 (human TASK-1) [µM]	IC50 (human TASK-3) [µM]
CC(C)CNC(=O)N1C2CCC1CN(Cc1c(-c3ccc(Cl)cc3)nc3ncccn13)C2 [Example 101, 3-{[2-(4-Chlorophenyl)imidazo[1,2-a]pyrimidin-3-yl]methyl}-N-isobutyl-3,8-diazabicyclo[3.2.1]octane-8-carboxamide]	19	0.51
O=C(C1CCCC1)N1C2CCC1CN(Cc1c(-c3ccc(Cl)cc3)nc3ncccn13)C2 [Example 34]	0.076	0.029
CCc1cccc(C)c1NC(=O)N1C2CCC1CN(Cc1c(-c3ccc(Cl)cc3)nc3ncccn13)C2 [Example 98, 3-{[2-(4-chlorophenyl)imidazo[1,2-a]pyrimidin-3-yl]methyl}-N-(2-ethyl-6-methylphenyl)-3,8-diazabicyclo[3.2.1]octane-8-carboxamide]	9	0.16
CCc1ccccc1NC(=O)N1C2CCC1CN(Cc1c(-c3ccc(Cl)cc3)nc3ncccn13)C2 [Example 95, 3-{[2-(4-chlorophenyl)imidazo[1,2-a]pyrimidin-3-yl]methyl}-N-(2-ethylphenyl)-3,8-diazabicyclo[3.2.1]octane-8-carboxamide]	3	0.041
CSc1cccc(C(=O)N2C3COCC2CN(Cc2c(-c4ccc(Cl)cc4)nc4ncccn24)C3)n1 [Example 16, (7-{[2-(4-Chlorophenyl)imidazo[1,2-a]pyrimidin-3-yl]methyl}-3-oxa-7,9-diazabicyclo[3.3.1]non-9-yl)[6-(methylsulfanyl)pyridin-2-yl]methanone]	0.67	0.012
COc1cccc(C(=O)N2C3CCC2CN(Cc2c(-c4ccc(C5CC5)cc4)nc4ncccn24)C3)n1 [Example 137, (3-{[2-(4-cyclopropylphenyl)imidazo[1,2-a]pyrimidin-3-yl]methyl}-3,8-diazabicyclo[3.2.1]octan-8-yl)(6-methoxypyridin-2-yl)methanone]	1.1	0.18
O=C(c1csc(C(F)(F)F)n1)N1C2CCC1CN(Cc1c(-c3ccc(Cl)cc3)nc3ncccn13)C2 [Example 58]	1.6	0.017
COc1ccc(F)c(C(=O)N2CC3CCC2CN3Cc2c(-c3ccc(C(C)C)cc3)nc3ncccn23)n1 (centres unmarked) [Example 71]	14	0.11
O=C(Nc1cccc(Cl)c1)N1C2CCC1CN(Cc1c(-c3ccc(Cl)cc3)nc3ncccn13)C2 [Example 89, N-(3-chlorophenyl)-3-{[2-(4-chlorophenyl)imidazo[1,2-a]pyrimidin-3-yl]methyl}-3,8-diazabicyclo[3.2.1]octane-8-carboxamide]	30	0.85
O=C(C1CCCC1)N1C2CCC1CN(Cc1c(-c3ccc(Br)cc3)nc3ncccn13)C2 [Example 84]	0.093	0.0046
CC(C)c1ccc(-c2nc3ncccn3c2CN2CC3CCC(C2)N3C(=O)c2ncoc2C2CC2)cc1 [Example 131, (5-Cyclopropyl-1,3-oxazol-4-yl)(3-{[2-(4-isopropylphenyl)imidazo[1,2-a]pyrimidin-3-yl]methyl}-3,8-diazabicyclo[3.2.1]oct-8-yl)methanone]	3.5	0.41
O=C(c1ccccc1F)N1C2COCC1CN(Cc1c(-c3ccc(Cl)cc3)nc3ncccn13)C2 [Example 30]	3.5	0.085
CC(C)NC(=O)N1C2CCC1CN(Cc1c(-c3ccc(Cl)cc3)nc3ncccn13)C2 [Example 86, 3-{[2-(4-chlorophenyl)imidazo[1,2-a]pyrimidin-3-yl]methyl}-N-isopropyl-3,8-diazabicyclo[3.2.1]octane-8-carboxamide]	7.7	0.43
CC(C)(C)OC(=O)N1C2CCC1CN(Cc1c(-c3ccc(Cl)cc3)nc3ncccn13)C2 [Example 6, tert-Butyl 3-{[2-(4-chlorophenyl)imidazo[1,2-a]pyrimidin-3-yl]methyl}-3,8-diazabicyclo[3.2.1]octane-8-carboxylate]	1.4	0.041
O=C(c1coc(C2CC2)n1)N1C2CCC1CN(Cc1c(-c3ccc(Cl)cc3)nc3ncccn13)C2 [Example 47]	2.8	0.11
CC(C)c1nc(C(=O)N2C3CCC2CN(Cc2c(-c4ccc(Cl)cc4)nc4ncccn24)C3)cs1 [Example 54]	0.86	0.013
CN(C)C(=O)N1C2CCC1CN(Cc1c(-c3ccc(Cl)cc3)nc3ncccn13)C2 [Example 119, 3-{[2-(4-chlorophenyl)imidazo[1,2-a]pyrimidin-3-yl]methyl}-N,N-dimethyl-3,8-diazabicyclo[3.2.1]octane-8-carboxamide]	5.3	0.21

SMILES	IC50 (human TASK-1) [µM]	IC50 (human TASK-3) [µM]
CC(C)(C)OC(=O)N1CC2CCC1CN2Cc1c(-c2ccc(Cl)cc2)nc2ncccn12 (single isomer, unassigned) [Example 4, tert-Butyl 5-{[2-(4-chlorophenyl)imidazo[1,2-a]pyrimidin-3-yl]methyl}-2,5-diazabicyclo[2.2.2]octane-2-carboxylate]	0.47	0.097
O=C(Nc1ccc(SC(F)(F)F)cc1)N1C2CCC1CN(Cc1c(-c3ccc(Cl)cc3)nc3ncccn13)C2 [Example 103, 3-{[2-(4-chlorophenyl)imidazo[1,2-a]pyrimidin-3-yl]methyl}-N-{4-[(trifluoromethyl)sulfanyl]phenyl}-3,8-diazabicyclo[3.2.1]octane-8-carboxamide]	30	0.69
CC(C)(C)OC(=O)N1CC2CCC1CN2Cc1c(-c2ccc(Cl)cc2)nc2ncccn12 (single isomer, unassigned) [Example 5, tert-Butyl 5-{[2-(4-chlorophenyl)imidazo[1,2-a]pyrimidin-3-yl]methyl}-2,5-diazabicyclo[2.2.2]octane-2-carboxylate]	17	1.3
O=C(c1cscn1)N1C2CCC1CN(Cc1c(-c3ccc(Cl)cc3)nc3ncccn13)C2 [Example 61]	3	0.64
COc1ccc(F)c(C(=O)N2C3COCC2CN(Cc2c(-c4ccc(Cl)cc4)nc4ncccn24)C3)n1 [Example 15, (7-{[2-(4-Chlorophenyl)imidazo[1,2-a]pyrimidin-3-yl]methyl}-3-oxa-7,9-diazabicyclo[3.3.1]non-9-yl)(3-fluoro-6-methoxypyridin-2-yl)methanone]	1.1	0.019
O=C(c1ncoc1C1CC1)N1C2COCC1CN(Cc1c(-c3ccc(Cl)cc3)nc3ncccn13)C2 [Example 46]	7.6	0.14
O=C(Nc1ccc(F)cc1F)N1C2CCC1CN(Cc1c(-c3ccc(Cl)cc3)nc3ncccn13)C2 [Example 85, 3-{[2-(4-Chlorophenyl)imidazo[1,2-a]pyrimidin-3-yl]methyl}-N-(2,4-difluorophenyl)-3,8-diazabicyclo[3.2.1]octane-8-carboxamide]	30	1
O=C(C1CCCC1)N1CC2CCC1CN2Cc1c(-c2ccc(Cl)cc2)nc2ncccn12 (centres unmarked) [Example 37]	1.5	0.14
COc1ccc(C)c(C(=O)N2CC3CCC2CN3Cc2c(-c3ccc(Cl)cc3)nc3ncccn23)n1 (single isomer, unassigned) [Example 25, (5-{[2-(4-Chlorophenyl)imidazo[1,2-a]pyrimidin-3-yl]methyl}-2,5-diazabicyclo[2.2.2]oct-2-yl)(6-methoxy-3-methylpyridin-2-yl)methanone]	1.1	0.071
O=C(N1CCCCC1)N1C2CCC1CN(Cc1c(-c3ccc(Cl)cc3)nc3ncccn13)C2 [Example 116, (3-{[2-(4-chlorophenyl)imidazo[1,2-a]pyrimidin-3-yl]methyl}-3,8-diazabicyclo[3.2.1]oct-8-yl)(piperidin-1-yl)methanone]	2.7	0.065
O=C(c1ccccc1F)N1C2CCC1CN(Cc1c(-c3ccc(Br)cc3)nc3ncccn13)C2 [Example 83]	0.25	0.014
CCCOC(=O)N1C2CCC1CN(Cc1c(-c3ccc(Cl)cc3)nc3ncccn13)C2 [Example 126, propyl 3-{[2-(4-chlorophenyl)imidazo[1,2-a]pyrimidin-3-yl]methyl}-3,8-diazabicyclo[3.2.1]octane-8-carboxylate]	0.28	0.014
O=C(Nc1cccc(F)c1)N1C2CCC1CN(Cc1c(-c3ccc(Cl)cc3)nc3ncccn13)C2 [Example 104, 3-{[2-(4-chlorophenyl)imidazo[1,2-a]pyrimidin-3-yl]methyl}-N-(3-fluorophenyl)-3,8-diazabicyclo[3.2.1]octane-8-carboxamide]	19	0.46
COc1ccc(Cl)c(C(=O)N2CC3CCC2CN3Cc2c(-c3ccc(Cl)cc3)nc3ncccn23)n1 (centres unmarked) [Example 45]	1.8	0.12
COc1ccc(F)c(C(=O)N2CC3CCC2CN3Cc2c(-c3ccc(Br)cc3)nc3ncccn23)n1 (centres unmarked) [Example 81]	0.82	0.021
O=C(NC1CCCCC1)N1C2CCC1CN(Cc1c(-c3ccc(Cl)cc3)nc3ncccn13)C2 [Example 100, 3-{[2-(4-Chlorophenyl)imidazo[1,2-a]pyrimidin-3-yl]methyl}-N-cyclohexyl-3,8-diazabicyclo[3.2.1]octane-8-carboxamide]	19	0.63
CCOc1ccc(N(C)C(=O)N2C3CCC2CN(Cc2c(-c4ccc(Cl)cc4)nc4ncccn24)C3)cc1 [Example 120, 3-{[2-(4-chlorophenyl)imidazo[1,2-a]pyrimidin-3-yl]methyl}-N-(4-ethoxyphenyl)-N-methyl-3,8-diazabicyclo[3.2.1]octane-8-carboxamide]	15	0.23
